Data from patent US20240217978A1 (CHONG KUN DANG PHARMACEUTICAL CORP., priority 2021, published 2024).

The compounds below were run against human adenosine A2a receptor (Homo sapiens (Human), UniProt P29274) (assay: A2a receptor binding affinity, [3H]-NECA radioligand binding test). Settings: [3H]-NECA 37 nM; membrane from HEK-293 cells transfected with human adenosine A2a receptor.
Sequence of human adenosine A2a receptor (P29274 whole entry): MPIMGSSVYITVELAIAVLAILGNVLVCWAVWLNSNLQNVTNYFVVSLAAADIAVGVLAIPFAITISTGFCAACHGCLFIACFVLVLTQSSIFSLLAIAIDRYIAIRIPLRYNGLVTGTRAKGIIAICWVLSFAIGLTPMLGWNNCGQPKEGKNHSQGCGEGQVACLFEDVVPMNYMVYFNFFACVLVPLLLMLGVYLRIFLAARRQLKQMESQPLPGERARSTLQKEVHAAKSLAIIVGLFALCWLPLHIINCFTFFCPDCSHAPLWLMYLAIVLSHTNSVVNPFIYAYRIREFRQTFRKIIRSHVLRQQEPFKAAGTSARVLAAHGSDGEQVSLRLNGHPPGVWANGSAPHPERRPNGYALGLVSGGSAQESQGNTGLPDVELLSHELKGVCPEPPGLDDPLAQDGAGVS
Summary of the method: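 IC50 values (μM) come from displacement of [3H]-NECA, used at 37 nM final, on human A2a receptor membranes from transfected HEK-293 cells. Incubation lasted one hour at room temperature in Tris/MgCl2/EDTA buffer, pH 7.4; filter-bound radioactivity was counted by scintillation.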
`C[C@H](Nc1nc(N)n2nc(-c3ccco3)nc2n1)C(=O)N1C[C@@H]2C[C@H]1CN2Cc1ccc(F)cc1F` [Example 32, (S)-2-((7-amino-2-(furan-2-yl)-[1,2,4]triazolo[1,5-a][1,3,5]triazin-5-yl)amino)-1-((1S, 4S)-5-(2,4-difluorobenzyl)-2,5-diazabicyclo[2.2.1]heptan-2-yl)propan-1-one] gave an IC50 of 0.5 nM. `CC(C)(F)CN1CCN(C(=O)[C@@H]2CC3(CC3)CN2c2nc(N)n3nc(-c4ccco4)nc3n2)CC1` [Example 386, (S)-(5-(7-amino-2-(furan-2-yl)-[1,2,4]triazolo[1,5-a][1,3,5]triazin-5-yl)-5-azaspiro[2.4]heptan-6-yl)(4-(2-fluoro-2-methylpropyl)piperazin-1-yl)methanone] gave an IC50 of 8 nM. `CC[C@H](Nc1nc(N)n2nc(-c3ccco3)nc2n1)C(=O)N1CCN(c2nccs2)CC1` [Example 248, (S)-2-((7-amino-2-(furan-2-yl)-[1,2,4]triazolo[1,5-a][1,3,5]triazin-5-yl)amino)-1-(4-(thiazol-2-yl)piperazin-1-yl)butan-1-one] showed an IC50 of 13 nM. Work on `Nc1nc(N2CCC[C@H]2C(=O)N2CCC(C3CCN(CC(F)(F)F)CC3)CC2)cc2nc(-c3ccco3)nn12` [Example 376, (S)-(1-(5-amino-2-(furan-2-yl)-[1,2,4]triazolo[1,5-c]pyrimidin-7-yl)pyrrolidin-2-yl)(1′-(2,2,2-trifluoroethyl)-[4,4′-bipiperidin]-1-yl)methanone] yielded an IC50 of 1 nM. In the case of `Nc1nc(N[C@H](C(=O)N2CCN(CC(F)(F)F)CC2)C2CCCCC2)nc2nc(-c3nccs3)nn12` [Example 250, (S)-2-((7-amino-2-(thiazol-2-yl)-[1,2,4]triazolo[1,5-a][1,3,5]triazin-5-yl)amino)-2-cyclohexyl-1-(4-(2,2,2-trifluoroethyl)piperazin-1-yl)ethan-1-one], the IC50 is reported as 9 nM. In the case of `Nc1nc(N2CCC[C@H]2C(=O)N2CCN(CC3CCC(C(F)(F)F)CC3)CC2)nc2nc(-c3ccco3)nn12` (stereo partly drawn) [Example 330, (S)-(1-(7-amino-2-(furan-2-yl)-[1,2,4]triazolo[1,5-a][1,3,5]triazin-5-yl)pyrrolidin-2-yl)(4-((4-(trifluoromethyl)cyclohexyl)methyl)piperazin-1-yl)methanone], the IC50 is reported as 11 nM. For `Nc1nc(N[C@@H](Cc2ccccc2)C(=O)N2CCC(COc3ccccc3)CC2)nc2nc(-c3ccco3)nn12` [Example 3, (S)-2-((7-amino-2-(furan-2-yl)-[1,2,4]triazolo[1,5-a][1,3,5]triazin-5-yl)amino)-1-(4-(phenoxymethyl)piperidin-1-yl)-3-phenylpropan-1-one], the IC50 was 1 nM. With `CCCCN1CCN(C(=O)[C@@H]2CCN2c2nc(N)n3nc(-c4ccc(C)o4)nc3n2)CC1` [Example 222, (S)-(1-(7-amino-2-(5-methylfuran-2-yl)-[1,2,4]triazolo[1,5-a][1,3,5]triazin-5-yl)azetidin-2-yl)(4-butylpiperazin-1-yl)methanone] the IC50 was 8 nM. `CC(C)(F)CN1CCN(C(=O)[C@@H]2CCCN2c2nc(N)n3nc(-c4ccco4)nc3n2)CC1` [Example 26, (S)-(1-(7-amino-2-(furan-2-yl)-[1,2,4]triazolo[1,5-a][1,3,5]triazin-5-yl)pyrrolidin-2-yl)(4-(2-fluoro-2-methylpropyl)piperazin-1-yl)methanone] showed an IC50 of 4 nM. In the case of `Cc1ccc(-c2nc3nc(N4CCC[C@H]4C(=O)N4CCN(CC(F)(F)C(F)(F)F)CC4)nc(N)n3n2)o1` [Example 299, (S)-(1-(7-amino-2-(5-methylfuran-2-yl)-[1,2,4]triazolo[1,5-a][1,3,5]triazin-5-yl)pyrrolidin-2-yl)(4-(2,2,3,3,3-pentafluoropropyl)piperazin-1-yl)methanone], the IC50 is reported as 9 nM. Compound `Nc1nc(N2CCC[C@H]2C(=O)N2CCC(CN3CC(F)C3)CC2)nc2nc(-c3ccco3)nn12` [Example 406, (S)-(1-(7-amino-2-(furan-2-yl)-[1,2,4]triazolo[1,5-a][1,3,5]triazin-5-yl)pyrrolidin-2-yl)(4-((3-fluoroazetidin-1-yl)methyl)piperidin-1-yl)methanone] has an IC50 of 17 nM. Work on `Nc1nc(N[C@H](C(=O)N2CCN(CC(F)F)CC2)C2CC2)nc2nc(-c3ccco3)nn12` [Example 354, (S)-2-((7-amino-2-(furan-2-yl)-[1,2,4]triazolo[1,5-a][1,3,5]triazin-5-yl)amino)-2-cyclopropyl-1-(4-(2,2-difluoroethyl)piperazin-1-yl)ethan-1-one] yielded an IC50 of 22 nM. `COCCN1CCN(C(=O)[C@H](C)Nc2nc(N)n3nc(-c4ccco4)nc3n2)CC1` [Example 118, (S)-2-((7-amino-2-(furan-2-yl)-[1,2,4]triazolo[1,5-a][1,3,5]triazin-5-yl)amino)-1-(4-(2-methoxyethyl)piperazin-1-yl)propan-1-one] gave an IC50 of 21 nM. In the case of `Nc1nc(N2CCC[C@H]2C(=O)N2CCC(N3CCC(F)(F)CC3)CC2)nc2nc(-c3ccco3)nn12` [Example 391, (S)-(1-(7-amino-2-(furan-2-yl)-[1,2,4]triazolo[1,5-a][1,3,5]triazin-5-yl)pyrrolidin-2-yl)(4,4-difluoro-[1,4′-bipiperidin]-1′-yl) methanone], the IC50 is reported as 7 nM. With `Nc1nc(N2CC[C@H]2C(=O)N2CCN(CC(F)(F)C(F)(F)F)CC2)nc2nc(-c3ccco3)nn12` [Example 256, (S)-(1-(7-amino-2-(furan-2-yl)-[1,2,4]triazolo[1,5-a][1,3,5]triazin-5-yl)azetidin-2-yl)(4-(2,2,3,3,3-pentafluoropropyl)piperazin-1-yl)methanone] the IC50 was 1 nM. In the case of `CCC(F)(F)CN1CCN(C(=O)[C@@H]2CCCN2c2nc(N)c3nc(-c4ccco4)oc3n2)CC1` [Example 270, (S)-(1-(7-amino-2-(furan-2-yl)oxazolo[5,4-d]pyrimidin-5-yl)pyrrolidin-2-yl)(4-(2,2-difluorobutyl)piperazin-1-yl)methanone], the IC50 is reported as 9 nM. With `COc1cccc(CN2CCN(C(=O)[C@H](C)Nc3nc(N)n4nc(-c5ccco5)nc4n3)CC2)c1` [Example 24, (S)-2-((7-amino-2-(furan-2-yl)-[1,2,4]triazolo[1,5-a][1,3,5]triazin-5-yl)amino)-1-(4-(3-methoxybenzyl)piperazin-1-yl)propan-1-one] the IC50 was 33 nM. `Nc1nc(N2CC[C@H]2C(=O)N2CCC(C3CCN(CC(F)F)CC3)CC2)cc2nc(-c3ccco3)nn12` [Example 378, (S)-(1-(5-amino-2-(furan-2-yl)-[1,2,4]triazolo[1,5-c]pyrimidin-7-yl)azetidin-2-yl)(1′-(2,2-difluoroethyl)-[4,4′-bipiperidin]-1-yl)methanone] showed an IC50 of 0.7 nM. In the case of `Cc1ccc(-c2nc3nc(N4CCC[C@H]4C(=O)N4CCN(CC(C)(F)F)CC4)nc(N)n3n2)o1` [Example 311, (S)-(1-(7-amino-2-(5-methylfuran-2-yl)-[1,2,4]triazolo[1,5-a][1,3,5]triazin-5-yl)pyrrolidin-2-yl)(4-(2,2-difluoropropyl)piperazin-1-yl)methanone], the IC50 is reported as 2 nM. In the case of `Cc1ccc(-c2nc3nc(N4CCC[C@H]4C(=O)N4CCN(Cc5ccc(F)cc5F)CC4)nc(N)n3n2)o1` [Example 40, (S)-(1-(7-amino-2-(5-methylfuran-2-yl)-[1,2,4]triazolo[1,5-a][1,3,5]triazin-5-yl)pyrrolidin-2-yl)(4-(2,4-difluorobenzyl)piperazin-1-yl)methanone], the IC50 is reported as 4 nM.
